From PubChem BioAssay AID2765 (Broad Institute, 2010)
Activity calls are given as the source filed them.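 How the source made its calls: active means half-maximal concentration for the rise in caspase light signal at or below ten times the top tested dose; inconclusive means flat fit between 30% and 70% activity, or unreliable curve fit; inactive means the rest.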

System: MEF A1-2A-BIM cells, caspase 3/7 luminescence, 3 h
Experiment: inducers of caspase signal in A1-dependent MEFs – cell-based, luminescence, retest, A1 inhibitor project, dose response (AID 2765)

| SMILES | EC50 |
| --- | --- |
| CC1=NOC(=O)/C1=C\c1ccc(-c2cccc(Cl)c2)o1 | > 35 µM (inactive) |
| CC(C)(C)N(Cc1ccccc1)C(=O)COC(=O)CNC(=O)c1ccco1 | > 35 µM (inactive) |
| COc1ccc(C(=O)Nc2cccc3c2CCCC3)cc1 | > 35 µM (inactive) |
| O=C(NCc1ccccc1)c1cncc(Br)c1 | > 35 µM (inactive) |
| CCCCOC(=O)c1ccc(S(N)(=O)=O)o1 | > 35 µM (inactive) |
| COCCNC(=S)N(CCc1c(C)[nH]c2ccccc12)Cc1cccnc1 | > 35 µM (inactive) |
| O=C(c1cc(-c2ccccn2)nc2ccc(Cl)cc12)N1CCN(CCc2ccccc2)CC1 | > 35 µM (inactive) |
| O=C(/C=C/c1ccc(O)cc1)c1ccc(O)cc1O | > 35 µM (inactive) |
| O=C(c1ccco1)N1CCN(C(=O)c2cc(-c3ccccn3)nc3ccc(Cl)cc23)CC1 | > 35 µM (inactive) |
| CCCCCCCC/C=C\CCCCCCCC(=O)NCCc1ccc(O)c(O)c1 | 8.06 µM |
| COc1ccccc1C(=O)NCCC(=O)N1CCN(S(=O)(=O)c2ccc(Cl)cc2)CC1 | > 35 µM (inactive) |
| COc1ccc(-c2csc(NC(=O)Cc3ccccc3F)n2)c(OC)c1 | > 35 µM (inactive) |
| Cc1ccc(NC(=O)c2ccc(Cl)c(N3C(=O)C=CC3=O)c2)cc1 | > 35 µM (inactive) |
| Cc1ccc(-c2nc(NC(=O)c3nn(C)cc3[N+](=O)[O-])sc2C)cc1C | 6.26 µM |
| O=C(NCc1ccc2c(c1)OCO2)C1CCN(c2ncccn2)CC1 | > 35 µM (inactive) |
| O=C(CC1CC2CCC1C2)N1CCN(S(=O)(=O)c2ccccc2C(F)(F)F)CC1 (configuration not stated) | > 35 µM (inactive) |
| CC(C)N(C(=O)CSc1ccc(S(=O)(=O)N2CCCCC2)cn1)C(C)C | > 35 µM (inactive) |
| COc1ccc(S(=O)(=O)N2CC(O)CC2C(=O)OCC(=O)Nc2ccc(Cl)cn2)cc1 (configuration not stated) | > 35 µM (inactive) |
| COc1ccc(CCNC(=O)C2CCCN2C(=O)Nc2ccc(Cl)cc2)cc1OC (configuration not stated) | > 35 µM (inactive) |
| Nc1cn(C2OC(CO)C(O)C2O)c(=O)[nH]c1=O (configuration not stated) | > 35 µM (inactive) |
| Cc1ccc(S(=O)(=O)N(C)Cc2ccc(C(=O)N/N=C/c3ccc(OC(F)F)cc3)cc2)cc1 | > 35 µM (inactive) |
| Cc1ccc(C(O)(CCN2CCCCC2)c2ccccc2)cc1 (configuration not stated) | > 35 µM (inactive) |
| CCOC(=O)c1c(NC(=O)C2C3C=CC(C3)C2C(=O)O)sc2c1CCCC2 (configuration not stated) | > 35 µM (inactive) |
| Cc1cccc(NC(=S)NC2CCCC2)c1C | > 35 µM (inactive) |
| CC(=O)Nc1ccc(S(=O)(=O)NCCc2ccccn2)cc1 | > 35 µM (inactive) |

| SMILES | EC50 |
| --- | --- |
| CCc1ccccc1NC(=O)CN(C)C(=O)Cn1ncc(Cl)c(Cl)c1=O | > 35 µM (inactive) |
| COc1ccc(N2CCN(C(=O)CCn3nnc4ccccc43)CC2)cc1 | > 35 µM (inactive) |
| O=C(NCCc1ccc(Cl)cc1)C1CCCN(S(=O)(=O)N2CCCCCC2)C1 (configuration not stated) | > 35 µM (inactive) |
| COc1ccc2c(c1)c(=O)c(C(=O)c1ccc(F)cc1)cn2CC(=O)Nc1ccc(F)cc1 | > 35 µM (inactive) |
| C=C1CCc2c([nH]c3ccc(OCC(C)C)cc23)C1=O | 15.1 µM |
| CCOc1ccccc1CNC(=O)Cn1nc(C)c2c(C)n(-c3ccc(C)cc3)nc2c1=O | > 35 µM (inactive) |
| CC(C)c1nnc(NC(=O)COC(=O)/C=C/c2ccc([N+](=O)[O-])cc2)s1 | > 35 µM (inactive) |
| COc1ccc(CCNC(=O)COC(=O)c2cnc(Cl)c(Cl)c2)cc1 | > 35 µM (inactive) |
| CCC1(C(=O)c2ccc(Cl)cc2)C2c3ccccc3OC(=O)C21C(=O)Nc1ccccc1 (configuration not stated) | > 35 µM (inactive) |
| CCOc1ccc(N2C(=O)CN=C2Nc2ccccc2F)cc1 | > 35 µM (inactive) |
| CCCN1CCN(CCCNC(=O)CCCn2nc(C)c3sc4ccccc4c3c2=O)CC1 | > 35 µM (inactive) |
| C=CCNC(=O)CSc1nc2sc3c(c2c(=O)n1CCC)CCC3 | > 35 µM (inactive) |
| COC(=O)C1SCC2C(=O)N(Cc3ccc(Cl)cc3)CC(=O)N21 (configuration not stated) | > 35 µM (inactive) |
| O=C(c1c[nH]c2ccccc12)C(Cl)c1ccccc1 (configuration not stated) | > 35 µM (inactive) |
| C=CC[N+]1(CC=C)CCOCC1 | > 35 µM (inactive) |
| COC(=O)c1ccc(CNC(=O)C2CCC(=O)N(CCc3ccccc3)C2)cc1 (configuration not stated) | > 35 µM (inactive) |
| O=C1C(=O)N(C/C=C/c2ccccc2)c2ccccc21 | > 35 µM (inactive) |
| O=C(Nc1ccc2oc(-c3ccccc3F)nc2c1)c1ccccc1F | > 35 µM (inactive) |
| CN(CC(=O)Nc1cccc2ccccc12)C(=O)c1ccc(NC(=O)CC#N)cc1 | > 35 µM (inactive) |
| Cc1ccccc1[C@]1(C)ON(c2ccccc2C(F)(F)F)C1=O | > 35 µM (inactive) |
| COc1cc(SC#N)ccc1N=Cc1c(C)[nH]n(-c2ccc(C)cc2)c1=O | > 35 µM (inactive) |
| CC(=O)OC(C)(C)/C=C/C(=O)C(C)(O)C1[C@H](O)C[C@@]2(C)C3CC=C4C(CC[C@@H](O)C4(C)C)[C@]3(CO)C(=O)C[C@]12C (some centres not stated) | > 35 µM (inactive) |
| N#Cc1cccnc1N1CCN(C(=O)c2cccc3c2C(=O)c2ccc(-c4ccc(Cl)c(C(F)(F)F)c4)cc2S3(=O)=O)CC1 | > 35 µM (inactive) |
| CC(C)=C1C2C=CC1C1C(=O)N(c3ccc4c(c3)OCO4)C(=O)C21 (configuration not stated) | > 35 µM (inactive) |
| O=C1N(S(=O)(=O)c2ccccc2F)C(=O)C2(CCCC2)N1S(=O)(=O)c1ccccc1F | > 35 µM (inactive) |

| SMILES | EC50 |
| --- | --- |
| O=C(c1ccccc1Br)N(Cc1ccccc1)c1ccccc1 | > 35 µM (inactive) |
| COc1ccc(CN2CCCCC2C)cc1C (configuration not stated) | > 35 µM (inactive) |
| COc1cccc(-c2cc(=O)c3cc(NC(=O)c4ccc(N(C)C)cc4)ccc3[nH]2)c1 | > 35 µM (inactive) |
| O=C1N/C(=C/c2ccc(N3CCOCC3)o2)C(=O)N1c1cccc(Cl)c1 | > 35 µM (inactive) |
| Cc1cc(/C=C(/C#N)C(=O)O)c(C)n1-c1cccc2ccccc12 | > 35 µM (inactive) |
| O=C1C(=O)c2ccc(-c3ccccc3)cc2-c2ccccc21 | > 35 µM (inactive) |
| CCCOC(=O)Nc1ccc([As](=O)(O)O)cc1NC(=O)OCCC | > 35 µM (inactive) |
| Cn1cnc([N+](=O)[O-])c1S(=O)(=O)c1cccc(Cl)c1 | > 35 µM (inactive) |
| O=C(CCl)N=c1sccn1Cc1ccccc1Cl | > 35 µM (inactive) |
| CSC[C@@H]1NC(=S)N(c2ccc(C)cc2)C1=O | > 35 µM (inactive) |
| CCCCCCCCC(=O)NNC(=O)c1c(O)c2ccccc2n(CCC)c1=O | > 35 µM (inactive) |
| COc1ccc(NS(=O)(=O)c2cc(NC(=O)c3ccc(Cl)cc3)ccc2N2CCOCC2)cc1 | > 35 µM (inactive) |
| Nc1nc(CSc2nc3ccccc3[nH]2)nc(N2CCOCC2)n1 | > 35 µM (inactive) |
| CC(=O)Nc1ccc(NC(=O)C(=O)NCC(c2ccco2)N2CCc3ccccc32)cc1 (configuration not stated) | 32.5 µM |
| Clc1ccccc1CN(Cc1ccccc1)c1ncnc2nc[nH]c12 | > 35 µM (inactive) |
| COc1ccc(C(=O)Nc2ccc(NC(C)=O)cc2)cc1S(=O)(=O)N1CCCCC1C (configuration not stated) | > 35 µM (inactive) |
| CCCC(=O)Nc1ncnc2c1ncn2[C@@H]1O[C@@H]2OP(=O)(O)OC[C@H]2[C@H]1OC(=O)CCC | > 35 µM (inactive) |
| CC1CC(C)CN(C(=O)c2ccc(-c3ccc([N+](=O)[O-])cc3)o2)C1 (configuration not stated) | > 35 µM (inactive) |
| CC1CCN(c2ccc3nnc(CCC(=O)NCc4ccco4)n3n2)CC1 | > 35 µM (inactive) |
| O=[N+]([O-])/C=C/c1cn(Cc2ccc(Cl)cc2)c2ccccc12 | 21.6 µM |
| CCNC(=O)/C(C#N)=C/c1c(N2CCN(C)CC2)nc2c(C)cccn2c1=O | > 35 µM (inactive) |
| Cc1cc(NC(=O)COC(=O)C(Cc2ccccc2)NC(=O)c2ccco2)no1 (configuration not stated) | > 35 µM (inactive) |
| Cc1cccc(C)c1NC(=O)CSc1nc(C)c(CC(=O)c2ccc(Br)cc2)c(C)c1C#N | 30.2 µM |
| CC(C)NCC(O)c1ccc(NS(C)(=O)=O)cc1 (configuration not stated) | > 35 µM (inactive) |
| O=C(NCCCN1CCCCC1)c1ccc2c(c1)NC(=O)c1ccccc1S2 | > 35 µM (inactive) |

| SMILES | EC50 |
| --- | --- |
| O=C(/C=C/c1ccccc1)Nc1cccnc1 | > 35 µM (inactive) |
| O=C(NCc1cccs1)C(=O)NCC1OCCCN1S(=O)(=O)c1ccccc1 (configuration not stated) | > 35 µM (inactive) |
| CCCCn1c(=O)[nH]c(=O)c2c1nc(Cn1ncc(Cl)c(Cl)c1=O)n2CCC | > 35 µM (inactive) |
| Cc1cc(C(F)(F)F)n2ncc(-c3cccc(Br)c3)c2n1 | > 35 µM (inactive) |
| O=C1C=CC(=O)N1c1cccc(-c2ccccc2)c1 | > 35 µM (inactive) |
| CCOC(=O)/C(=C\c1cccnc1)C(=O)c1cc(C(C)=O)c(Nc2ccccc2)s1 | > 35 µM (inactive) |
| CC(=O)Nc1ccc(NC(=O)c2cc(C)nn2-c2ccccc2)cc1 | > 35 µM (inactive) |
| COCc1cc(C)nc(SCC(=O)Nc2nc(C)cs2)c1C#N | > 35 µM (inactive) |
| COc1ccc(C(=O)COC(=O)Cn2[nH]c(=O)c3ccccc3c2=O)c(OC)c1 | > 35 µM (inactive) |
| Cc1cc(N2C(=O)C=CC2=O)c([N+](=O)[O-])cc1C | > 35 µM (inactive) |
| CSc1nnc(-c2cc3c(-c4ccccc4)nn(C)c3s2)n1C | > 35 µM (inactive) |
| Cc1ccccc1S(=O)(=O)N(CC(O)CN1CCCCC1)c1ccccc1 (configuration not stated) | > 35 µM (inactive) |
| COc1ccc(C(=O)Nc2ccc(S(=O)(=O)NC(C)=O)cc2)cc1[N+](=O)[O-] | > 35 µM (inactive) |
| CCOCCCNC(=O)C1(O)c2cc(Br)ccc2NC(=O)N1c1ccc(CC)cc1 (configuration not stated) | > 35 µM (inactive) |
| CONC(=O)c1cc(OCC(F)(F)F)ccc1OCC(F)(F)F | > 35 µM (inactive) |
| COc1ccc(CN2CCN(Cc3cc4ccccc4o3)CC2CCO)c(F)c1 (configuration not stated) | > 35 µM (inactive) |
| COc1ccc(CCNC(=O)CSc2nc(-c3ccc(OC)c(OC)c3)ccc2C#N)cc1 | > 35 µM (inactive) |
| COc1ccc(N2CC(C(=O)N[C@H](C(=O)NC(C)c3ccccc3)C(C)C)CC2=O)cc1 (some centres not stated) | > 35 µM (inactive) |
| CCc1cc(-c2[nH]ncc2-c2ccc(OC)cc2)c(O)cc1O | > 35 µM (inactive) |
| CC(CC(=O)N1CCN(c2cccc(Cl)c2)CC1)S(=O)(=O)c1ccc2c(c1)NC(=O)CO2 (configuration not stated) | > 35 µM (inactive) |
| O=C(COc1ccc(Br)cc1F)NCC1(N2CCCCC2)CCCCC1 | > 35 µM (inactive) |
| O=S1(=O)C=C(Sc2nc3ccccc3s2)c2ccccc21 | > 35 µM (inactive) |
